Source: publication doi:10.1101/2024.12.09.627393 (bioRxiv, 2024)

Tested on: CECR2-BRD
Experiment: 2D 15N-HSQC NMR chemical shift perturbation titration
Assay type: binding, human
Details: 15N-labeled CECR2-BRD, 25°C; 3% DMSO, or NVS-CECR2–1 including 3% DMSO
Description: CECR2-BRD was expressed and purified for NMR experiments following previously established methods, [18]. Briefly, uniformly labeled ^15N CECR2-BRD samples in buffer containing 20 mM Tris-HCl pH 6.8, 150 mM NaCl, 1 mM TCEP, and 10% D2O were purified at 0.30 mM for chemical-shift perturbation experiments.
All two-dimensional (2D) ^15N-HSQC (heteronuclear single quantum […]) experiments were acquired at 25°C using a 600 MHz Bruker AVANCE III spectrometer equipped with a z-gradient 1.7 mm TCI probe at the National Magnetic Resonance Facility at Madison (NMRFAM). The experimental setup for all 2D experiments was kept similar to our previous studies, [18]. […] Chemical Shift Perturbations (CSP) from the final titration point were calculated and normalized as described by Williamson[21], using the equation: Δδ=√ΔδH^2+α⋅ΔδN^2 Where α=0.2 for glycine, and 0.14 for all other residues. ΔδH and ΔδN represent chemical shifts in ppm for hydrogen and nitrogen atoms, respectively. […] These were calculated using the standard deviation (Δ ppm/ Standard deviation ppm, where standard deviation was calculated for each histone ligand) of the Euclidean chemical change of the residues as described previously, [18].

| SMILES | Chemical shift perturbations of CECR2-BRD residues (in words) |
| --- | --- |
| C[S+](C)[O-] [DMSO] | significant (> 1 Δppm) shifts in residues within the ZA loop and BC loop region |
| CCCS(=O)(=O)c1nc(NC2CC2)cc(-c2ccc3c(ccn3C3CC(C)(C)NC(C)(C)C3)c2)n1 [NVS-CECR2–1] | CSPs in some residues within αA, αB and αC helices |
